Measured values: patent US20230225990A1, “DIMETHYL SULFONE FOR TREATMENT OF CHRONICALLY HEAT STRESSED POULTRY” (Evonik Operations GmbH, priority 2020, published 2023)
Marks after values point to notes of the source that are not given here.

Columns and labels:
Assay type in all cases: in vivo, broiler chickens (Ross 308)
[1] = system: male broilers subjected to chronic cyclic heat stress; experiment: Carcass yield and portions on d-40; details: d-40 after overnight fasting
From the text: Sampling of two birds per pen (with weight close to average weight of the pen) on d-40 after overnight fasting (no heat stress that day) • Carcass yield, breast percentage, thigh percentage, drumstick percentage and abdominal fat • Carcass yield: with skin, bled, without internal organs, without feet, without head, without neck, without abdominal fat; relative to bird body weight • Breast percentage: skinless, boneless; relative to bird body weight • Thigh percentage: with skin, with bone; relative to bird body weight • Drumstick percentage: with skin, with bone; relative to bird body weight • Abdominal fat percentage: abdominal fat; relative to bird body weight • Breast meat quality • Scoring of breast myopathies (wooden breast and white striping) • Wooden breast: normal, 0; mild, 1 and severe, 2 • White striations: normal, 0; mild, 1, and severe, 2 • pH and colour, both at time 0 h and 24 h (after sampling at time 0 h, breasts are stored at 4° C. until 24 h) • Drip loss, determined for periods 0-24 h and for period 0-72 h (after sampling at time 0 h, breasts are stored at 4° C. until 72 h, and weight without exuded water at 24 h and 72 h) • Press loss, determined at 24 h (after sampling at time 0 h, breasts are stored at 4° C. until 24 h, prior to determine press loss) • Oxidative stability (TBARS after simulated retail display)

[2] = system: male broilers subjected to chronic cyclic heat stress; experiment: Body weight and rectal temperature of birds sampled at d-23, d-25 and d-39
Description: (§1) Sampling of one bird per pen (with weight close to average weight of the pen) on d-23, d-25 and on d-39 (on d-25 and d-39, sampling starts after >3 h of heat stress that day; 108 birds in total) • malondialdehyde, HSP70 (Chicken Heat Shock Protein 70, Hsp-70 ELISA Kit) Cusabio Code CSB-E11196Ch), HSP90 (Chicken Heat Shock Protein 90, HSP-90 ELISA Kit; Cusabio Code CSB-E12873C), GPx, SOD in plasma; GSH/GSSG in erythrocytes; and T3, T4 and nitric oxide in serum • Breast muscle and liver: malondialdehyde, AOX (GPx, SOD), GSH/GSSG
(§2) For physiological measurements, time of sampling (representing the number of minutes between the beginning of heat stress and the precise moment of sampling of the bird that day), if appropriate, was included in the model as a covariable if significant as well. Orthogonal contrasts were applied to test for linear and quadratic effects upon incremental levels of DMS supplementation in the diet. Means are given as estimated marginal means (least square means). Means were separated using the Tukey post-hoc test. Differences were considered significant when p<0.05 and as a trend for significance when p<0.1.
At d-23, d-25 and d39, one bird per pen (with weight close to average weight of the pen) was sampled. On d-25 and d-39, sampling started after >3 h of heat stress that day. Thus, in total 108 birds were sampled, and various endpoints were determined in several tissues. To recall, finisher period started on d-21, while the heat stress protocol was implemented from d-24 onwards. It means that d-23 was the last day prior to heat stress and d-25 the second day whereby birds were subjected to high temperatures. Body weights on d-23 and d-25 (Table 7) were naturally higher than those reported on d-21 (Table 3), but not affected by treatment. Body weights at d-39 for sampled birds are very close to body weights for d-39 shown in Table 3, which confirms that birds with weight close to average weight of the pen were selected. Again, this was not affected by supplementation with DMS. Rectal temperature of sampled birds on d-23 represents values for thermo-neutral conditions, and thus ranged between 41.1 and 41.3° C. without treatment differences (FIG. 15). However, on d-25 rectal temperatures were largely elevated and obviously affected by diet (P<0.05). […] Nonetheless, observations are in line with findings on d-38 (Table 4).

[3] = system: male broilers subjected to chronic cyclic heat stress; experiment: Parameters in liver of birds sampled at d-23, d-25 and d-39
Description: as §1, §2

[4] = system: male broilers subjected to chronic cyclic heat stress; experiment: Parameters in breast muscle of birds sampled at d-23, d-25 and d-39
Description: as §1, §2

[5] = 0.2% DMS in diet (T3), sampled birds d-25

**Q.** What does the source list for `CS(C)(=O)=O` [DMS, dimethyl sulfone]?
**A.** Body weight ([1]; 0.1% DMS in diet (T2)): 3010 g; Body weight ([1]; 0.2% DMS in diet (T3)): 2980 g; Body weight ([2]; 0.1% DMS in diet (T2), sampled birds d-23): 1361 g; Rectal temperature ([2]; 0.1% DMS in diet (T2), sampled birds d-23 (prior to heat stress)): 41.3 °C; Body weight ([2]; 0.1% DMS in diet (T2), sampled birds d-25): 1544 g; Rectal temperature ([2]; 0.1% DMS in diet (T2), sampled birds d-25, during heat stress): 42.5^b ° C.; Body weight ([2]; 0.1% DMS in diet (T2), sampled birds d-39): 3097 g; Rectal temperature ([2]; 0.1% DMS in diet (T2), sampled birds d-39, during heat stress): 42.6 °C; Body weight ([2]; 0.2% DMS in diet (T3), sampled birds d-23): 1352 g; Rectal temperature ([2]; 0.2% DMS in diet (T3), sampled birds d-23 (prior to heat stress)): 41.1 °C; Body weight [2, 5]: 1536 g; Rectal temperature lower than control [2, 5]: 0.5 °C; Rectal temperature ([2]; 0.2% DMS in diet (T3), sampled birds d-25, during heat stress): 42.3^b ° C.; Body weight ([2]; 0.2% DMS in diet (T3), sampled birds d-39): 3068 g; Rectal temperature ([2]; 0.2% DMS in diet (T3), sampled birds d-39, during heat stress): 42.3 °C; GSSG/GSH ([3]; 0.1% DMS in diet (T2), d-23): 0.016; Glutathione (GSH) ([3]; 0.1% DMS in diet (T2), d-23): 4.69 µmol/g; Glutathione peroxidase ([3]; 0.1% DMS in diet (T2), d-23): 17.0 U/g; Malondialdehyde ([3]; 0.1% DMS in diet (T2), d-23): 43.9 nmol/g; Oxidized glutathione (GSSG) ([3]; 0.1% DMS in diet (T2), d-23): 0.077 µmol/g; Super oxide dismutase ([3]; 0.1% DMS in diet (T2), d-23): 332 U/g; GSSG/GSH ([3]; 0.1% DMS in diet (T2), d-25): 0.017; Glutathione (GSH) ([3]; 0.1% DMS in diet (T2), d-25): 4.26 µmol/g; Glutathione peroxidase ([3]; 0.1% DMS in diet (T2), d-25): 17.8 U/g; Malondialdehyde ([3]; 0.1% DMS in diet (T2), d-25): 48.6 nmol/g; Oxidized glutathione (GSSG) ([3]; 0.1% DMS in diet (T2), d-25): 0.070 µmol/g; Super oxide dismutase ([3]; 0.1% DMS in diet (T2), d-25): 292 U/g; GSSG/GSH ([3]; 0.1% DMS in diet (T2), d-39): 0.027; Glutathione (GSH) ([3]; 0.1% DMS in diet (T2), d-39): 3.74 µmol/g; Glutathione peroxidase ([3]; 0.1% DMS in diet (T2), d-39): 17.5 U/g; Malondialdehyde ([3]; 0.1% DMS in diet (T2), d-39): 46.4 nmol/g; Oxidized glutathione (GSSG) ([3]; 0.1% DMS in diet (T2), d-39): 0.093 µmol/g; Super oxide dismutase ([3]; 0.1% DMS in diet (T2), d-39): 356 U/g; GSSG/GSH ([3]; 0.2% DMS in diet (T3), d-23): 0.015; Glutathione (GSH) ([3]; 0.2% DMS in diet (T3), d-23): 5.04 µmol/g; Glutathione peroxidase ([3]; 0.2% DMS in diet (T3), d-23): 16.9 U/g; Malondialdehyde ([3]; 0.2% DMS in diet (T3), d-23): 44.6 nmol/g; Oxidized glutathione (GSSG) ([3]; 0.2% DMS in diet (T3), d-23): 0.076 µmol/g; Super oxide dismutase ([3]; 0.2% DMS in diet (T3), d-23): 317 U/g; GSSG/GSH ([3]; 0.2% DMS in diet (T3), d-25): 0.017; Glutathione (GSH) ([3]; 0.2% DMS in diet (T3), d-25): 4.14 µmol/g; Glutathione peroxidase ([3]; 0.2% DMS in diet (T3), d-25): 17.9 U/g; Malondialdehyde ([3]; 0.2% DMS in diet (T3), d-25): 49.1 nmol/g; Oxidized glutathione (GSSG) ([3]; 0.2% DMS in diet (T3), d-25): 0.069 µmol/g; Super oxide dismutase ([3]; 0.2% DMS in diet (T3), d-25): 289 U/g; GSSG/GSH ([3]; 0.2% DMS in diet (T3), d-39): 0.025; Glutathione (GSH) ([3]; 0.2% DMS in diet (T3), d-39): 3.94 µmol/g; Glutathione peroxidase ([3]; 0.2% DMS in diet (T3), d-39): 18.6 U/g; Malondialdehyde ([3]; 0.2% DMS in diet (T3), d-39): 48 nmol/g; Oxidized glutathione (GSSG) ([3]; 0.2% DMS in diet (T3), d-39): 0.097 µmol/g; Super oxide dismutase ([3]; 0.2% DMS in diet (T3), d-39): 346 U/g; Glutathione (GSH) ([4]; 0.1% DMS in diet (T2), d-23): 1.00 µmol/g; Glutathione peroxidase ([4]; 0.1% DMS in diet (T2), d-23): 0.39 U/g; Malondialdehyde ([4]; 0.1% DMS in diet (T2), d-23): 4.72 nmol/g; Super oxide dismutase ([4]; 0.1% DMS in diet (T2), d-23): 29.7 U/g; Glutathione (GSH) ([4]; 0.1% DMS in diet (T2), d-25): 1.30^ab μmol/g; Glutathione peroxidase ([4]; 0.1% DMS in diet (T2), d-25): 0.42 U/g; Malondialdehyde ([4]; 0.1% DMS in diet (T2), d-25): 4.6 nmol/g; Super oxide dismutase ([4]; 0.1% DMS in diet (T2), d-25): 27.3 U/g; Glutathione (GSH) ([4]; 0.1% DMS in diet (T2), d-39): 1.46 µmol/g; Glutathione peroxidase ([4]; 0.1% DMS in diet (T2), d-39): 0.46 U/g; Malondialdehyde ([4]; 0.1% DMS in diet (T2), d-39): 5.23 nmol/g; Super oxide dismutase ([4]; 0.1% DMS in diet (T2), d-39): 27.4 U/g; Glutathione (GSH) ([4]; 0.2% DMS in diet (T3), d-23): 1.10 µmol/g; Glutathione peroxidase ([4]; 0.2% DMS in diet (T3), d-23): 0.38 U/g; Malondialdehyde ([4]; 0.2% DMS in diet (T3), d-23): 4.5 nmol/g; Super oxide dismutase ([4]; 0.2% DMS in diet (T3), d-23): 32.6 U/g; Glutathione (GSH) ([4]; 0.2% DMS in diet (T3), d-25): 1.39^a μmol/g; Glutathione peroxidase ([4]; 0.2% DMS in diet (T3), d-25): 0.44 U/g; Malondialdehyde ([4]; 0.2% DMS in diet (T3), d-25): 4.5 nmol/g; Super oxide dismutase ([4]; 0.2% DMS in diet (T3), d-25): 28.1 U/g; Glutathione (GSH) ([4]; 0.2% DMS in diet (T3), d-39): 1.56 µmol/g; Glutathione peroxidase ([4]; 0.2% DMS in diet (T3), d-39): 0.50 U/g; Malondialdehyde ([4]; 0.2% DMS in diet (T3), d-39): 5.57 nmol/g; Super oxide dismutase ([4]; 0.2% DMS in diet (T3), d-39): 26.2 U/g
